For test [1], the target named is T1, human Nav1.7 channels (Homo sapiens, UniProt Q15858).
T1 construct: expressed in transfected cells; host or cells: CHO
The experiment in a line: FRET assay, human Nav1.7 (EFS on FDSS). The test is classed as cell-based. The following applies: CHO cells expressing human Nav1.7, read-out: IC50 against Nav1.7. A digest of the protocol:
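IC50 was derived from normalized 440 nm fluorescence ratios of the EFS-evoked membrane-potential response read on FDSS. Recombinant CHO cells were sequentially dye-loaded with coumarin/oxonol FRET pair at room temperature in pH 7.4 buffer before compound addition.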

Test [2] addresses T2, human Nav1.3 channels (Homo sapiens, UniProt Q9NY46).
T2 construct: expressed in transfected cells; host or cells: HEK293
The experiment in a line: FRET assay, human Nav1.3 (EFS on FDSS). The class given is cell-based. The following applies: HEK293 cells expressing human Nav1.3, read-out: IC50 against Nav1.3. On the procedure:
The inhibitory activities of compounds against voltage gated sodium channels are determined by methodology well known in the art.
The ability of the aryl substituted carboxamide derivatives of the formula (I) to inhibit the NaV1.3, Nav1.7 and Nav1.5 channels is measured by Fluorescence Resonance Energy Transfer (FRET) assay and electrophysiology assay described below.
This screen is used to determine the effects of compounds on human Nav1.3, human Nav1.7, and human Nav1.5 channels, utilising electrical field stimulation (EFS) system in 96-well plate format on FDSS (Hamamatsu Photonics) platform. The change of membrane potential is monitored with FRET dye pair, oxonol (DiSBAC2(3)) and coumarin (CC2-DMPE).
Each HEK293 cells expressing human Nav1.3 channels and HEK293 cells expressing human Nav1.5 channels are grown in T225 flasks, in a 5% CO2 humidified incubator to about 80% confluence. Media composition consists of Dulbecco's Modified Eagle Medium (high glucose), 10% FCS, 100 units/mL Penicillin, 100 microgram/mL Streptomycin and 500 microgram/mL Geneticine.
Protocol: • Seed each cell lines (1×10^5 cells/well) into poly-D-lysine coated 96-well plates prior to experimentation. • Incubate at 37° C. in 5% CO2 for 24 hours. • Wash each well with assay buffer (140 mM NaCl, 4.5 mM KCl, 10 mM D-Glucose, 2 mM CaCl2, 1 mM MgCl2, 10 mM HEPES, pH 7.4 adjusted with NaOH) twice. • Add 1st loading solution containing 10 microM CC2-DMPE and 0.06% Pluronic F-127 in assay buffer. • Incubate the plate at room temperature in dark for 1 hour. • Remove 1st loading solution and added 2nd loading solution containing 15 microM DiSBAC2(3), 0.555 mM VABSC-1 and 0.004% Pluronic F-127 in assay buffer. • Place the plate under the dark at room temperature for 25 minutes. • Add compound solutions into the assay plate. • Set the assay plate in FDSS and placed an EFS device on the plate. • Measure EFS-induced fluorescent response by FDSS.
The data are analyzed and reported as normalized ratios of intensities measured at […]. The process of calculating these ratios is performed as follows:
This analysis is performed using a computerized specific program designed for FDSS generated data. Fluorescence ratio values are plotted using XLfit to determine an IC50 value for each compound.

The structures appear in SMILES notation.

T2 sequence (Q9NY46 whole entry): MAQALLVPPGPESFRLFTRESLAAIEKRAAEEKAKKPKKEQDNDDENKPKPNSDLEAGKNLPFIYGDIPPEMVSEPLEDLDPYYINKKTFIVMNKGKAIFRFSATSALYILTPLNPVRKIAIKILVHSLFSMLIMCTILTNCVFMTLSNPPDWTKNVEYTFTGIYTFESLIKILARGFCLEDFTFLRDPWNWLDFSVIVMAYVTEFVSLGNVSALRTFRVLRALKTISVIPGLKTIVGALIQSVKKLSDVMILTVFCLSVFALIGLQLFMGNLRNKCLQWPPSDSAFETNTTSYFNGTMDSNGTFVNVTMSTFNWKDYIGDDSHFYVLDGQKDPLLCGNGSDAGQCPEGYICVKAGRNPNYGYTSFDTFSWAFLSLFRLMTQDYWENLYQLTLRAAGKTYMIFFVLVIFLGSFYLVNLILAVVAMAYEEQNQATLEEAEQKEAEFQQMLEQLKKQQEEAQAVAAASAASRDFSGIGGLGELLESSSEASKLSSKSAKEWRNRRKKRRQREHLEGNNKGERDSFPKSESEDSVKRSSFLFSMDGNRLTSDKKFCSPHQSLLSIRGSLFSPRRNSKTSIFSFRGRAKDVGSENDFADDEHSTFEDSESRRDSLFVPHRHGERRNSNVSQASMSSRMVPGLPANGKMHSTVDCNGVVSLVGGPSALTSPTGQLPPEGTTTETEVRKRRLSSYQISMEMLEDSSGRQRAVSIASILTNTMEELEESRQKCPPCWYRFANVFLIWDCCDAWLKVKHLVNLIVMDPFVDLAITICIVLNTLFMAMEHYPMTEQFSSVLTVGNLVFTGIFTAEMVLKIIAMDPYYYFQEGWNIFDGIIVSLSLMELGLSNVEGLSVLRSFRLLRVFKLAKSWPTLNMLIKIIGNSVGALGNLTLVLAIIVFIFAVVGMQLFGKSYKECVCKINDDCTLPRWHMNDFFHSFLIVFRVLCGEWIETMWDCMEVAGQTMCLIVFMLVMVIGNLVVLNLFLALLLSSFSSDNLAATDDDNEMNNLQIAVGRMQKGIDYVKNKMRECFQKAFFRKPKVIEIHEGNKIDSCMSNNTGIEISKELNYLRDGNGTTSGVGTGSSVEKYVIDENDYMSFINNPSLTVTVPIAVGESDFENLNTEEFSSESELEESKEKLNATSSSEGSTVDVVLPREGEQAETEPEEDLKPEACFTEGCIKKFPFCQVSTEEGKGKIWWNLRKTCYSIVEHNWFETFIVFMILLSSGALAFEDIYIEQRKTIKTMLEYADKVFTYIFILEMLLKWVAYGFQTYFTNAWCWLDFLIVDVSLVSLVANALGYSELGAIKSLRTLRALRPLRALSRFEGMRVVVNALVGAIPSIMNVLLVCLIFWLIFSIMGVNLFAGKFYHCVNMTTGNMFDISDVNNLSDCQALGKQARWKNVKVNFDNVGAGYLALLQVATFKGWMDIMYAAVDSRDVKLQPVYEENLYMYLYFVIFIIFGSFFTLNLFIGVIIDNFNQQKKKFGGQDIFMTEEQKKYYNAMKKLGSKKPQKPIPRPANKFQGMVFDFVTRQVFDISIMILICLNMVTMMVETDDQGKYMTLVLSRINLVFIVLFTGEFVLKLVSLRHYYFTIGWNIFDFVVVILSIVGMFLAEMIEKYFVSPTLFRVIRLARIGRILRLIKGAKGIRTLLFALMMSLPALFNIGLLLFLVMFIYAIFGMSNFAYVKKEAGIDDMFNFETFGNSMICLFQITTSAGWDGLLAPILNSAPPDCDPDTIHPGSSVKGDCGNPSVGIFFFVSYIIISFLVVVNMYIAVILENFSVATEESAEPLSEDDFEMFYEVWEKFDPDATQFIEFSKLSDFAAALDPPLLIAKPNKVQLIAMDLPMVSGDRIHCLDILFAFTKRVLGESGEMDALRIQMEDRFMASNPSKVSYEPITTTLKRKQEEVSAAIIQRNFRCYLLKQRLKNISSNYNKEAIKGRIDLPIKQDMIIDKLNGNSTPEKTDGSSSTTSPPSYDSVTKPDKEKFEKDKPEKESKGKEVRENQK
T1 sequence (Q15858 whole entry): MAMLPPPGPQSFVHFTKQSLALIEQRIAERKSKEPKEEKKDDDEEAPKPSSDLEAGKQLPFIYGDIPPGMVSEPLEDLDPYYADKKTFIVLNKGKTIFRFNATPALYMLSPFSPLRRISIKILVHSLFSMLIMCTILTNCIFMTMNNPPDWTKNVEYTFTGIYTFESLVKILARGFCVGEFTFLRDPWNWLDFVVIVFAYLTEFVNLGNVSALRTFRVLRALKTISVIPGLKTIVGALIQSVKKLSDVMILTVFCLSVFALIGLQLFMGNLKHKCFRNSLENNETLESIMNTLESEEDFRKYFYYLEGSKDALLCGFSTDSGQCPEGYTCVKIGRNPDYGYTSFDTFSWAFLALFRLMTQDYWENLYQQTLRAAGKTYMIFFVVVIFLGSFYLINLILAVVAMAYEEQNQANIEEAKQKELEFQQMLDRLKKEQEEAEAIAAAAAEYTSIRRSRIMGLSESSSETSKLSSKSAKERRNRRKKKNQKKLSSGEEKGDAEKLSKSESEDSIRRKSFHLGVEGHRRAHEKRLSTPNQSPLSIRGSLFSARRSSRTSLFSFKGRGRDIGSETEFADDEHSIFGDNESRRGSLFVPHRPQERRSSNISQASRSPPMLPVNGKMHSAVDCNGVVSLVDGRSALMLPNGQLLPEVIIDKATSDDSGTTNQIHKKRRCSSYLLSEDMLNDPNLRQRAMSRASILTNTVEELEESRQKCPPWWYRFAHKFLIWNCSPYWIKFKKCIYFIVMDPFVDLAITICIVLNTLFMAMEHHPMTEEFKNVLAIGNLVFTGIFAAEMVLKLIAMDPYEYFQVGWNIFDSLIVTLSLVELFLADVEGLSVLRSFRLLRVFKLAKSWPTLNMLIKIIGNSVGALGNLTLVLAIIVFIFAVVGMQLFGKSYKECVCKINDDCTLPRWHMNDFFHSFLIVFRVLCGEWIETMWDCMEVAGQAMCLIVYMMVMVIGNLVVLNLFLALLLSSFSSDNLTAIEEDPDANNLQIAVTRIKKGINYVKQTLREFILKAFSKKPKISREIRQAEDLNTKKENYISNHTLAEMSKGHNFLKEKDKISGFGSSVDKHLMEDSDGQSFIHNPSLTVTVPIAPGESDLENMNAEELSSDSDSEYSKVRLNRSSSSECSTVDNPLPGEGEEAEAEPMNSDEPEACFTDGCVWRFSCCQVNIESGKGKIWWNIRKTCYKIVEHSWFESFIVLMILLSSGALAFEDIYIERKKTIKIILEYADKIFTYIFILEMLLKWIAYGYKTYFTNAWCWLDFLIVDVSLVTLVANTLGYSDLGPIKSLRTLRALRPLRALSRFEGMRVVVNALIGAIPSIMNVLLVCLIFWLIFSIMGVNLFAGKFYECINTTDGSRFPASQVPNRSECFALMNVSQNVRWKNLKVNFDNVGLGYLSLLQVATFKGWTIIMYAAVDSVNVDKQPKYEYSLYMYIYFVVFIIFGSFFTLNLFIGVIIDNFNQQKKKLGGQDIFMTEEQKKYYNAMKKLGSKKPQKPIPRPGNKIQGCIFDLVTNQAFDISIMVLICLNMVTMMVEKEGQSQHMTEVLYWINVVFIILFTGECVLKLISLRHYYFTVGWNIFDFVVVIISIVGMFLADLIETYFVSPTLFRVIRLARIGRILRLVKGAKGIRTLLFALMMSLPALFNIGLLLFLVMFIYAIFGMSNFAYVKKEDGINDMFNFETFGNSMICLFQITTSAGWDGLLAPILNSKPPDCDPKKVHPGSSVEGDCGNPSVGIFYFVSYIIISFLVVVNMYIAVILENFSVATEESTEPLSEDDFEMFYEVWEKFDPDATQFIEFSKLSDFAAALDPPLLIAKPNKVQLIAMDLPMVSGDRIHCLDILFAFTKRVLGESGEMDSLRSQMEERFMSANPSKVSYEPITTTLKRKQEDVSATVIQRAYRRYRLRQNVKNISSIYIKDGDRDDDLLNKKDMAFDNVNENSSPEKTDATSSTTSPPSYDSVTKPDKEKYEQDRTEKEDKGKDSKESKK

The IC50 is the midpoint of a concentration-inhibition curve. Regarding `Cc1cc(C(C)NC(=O)c2ccnc(NC(=O)C(C)C)c2)cnc1OCC(F)F` (single isomer, unassigned) [Example 555, N-(1-(6-(2,2-difluoroethoxy)-5-methylpyridin-3-yl)ethyl)-2-isobutyramidoisonicotinamide], the IC50 in test [1] and in test [2] was less than 1 µM throughout.

Regarding `Cc1cc(C(=O)NC(C)c2cnc(OCC(F)(F)F)c(Cl)c2)cc(NC(=O)C2CC2)n1` (single isomer, unassigned) [Example 832, N-(1-(5-chloro-6-(2,2,2-trifluoroethoxy)pyridin-3-yl)ethyl)-2-(cyclopropanecarboxamido)-6-methylisonicotinamide], the IC50 in test [1] and in test [2] was less than 1 µM each time.

Turning to `CC(NC(=O)c1ccnc(NC(=O)C2CC2)n1)c1ccc(OCC(F)(F)F)c(Cl)c1` (single isomer, unassigned) [Example 680, N-(1-(3-chloro-4-(2,2,2-trifluoroethoxy)phenyl)ethyl)-2-(cyclopropanecarboxamido)pyrimidine-4-carboxamide], the IC50 in test [1] and in test [2] was less than 1 µM in each case.

For the compound `CC(=O)Nc1cc(C(=O)NCc2cccc(OC(F)(F)F)c2F)cc(C)n1` [Example 751, 2-acetamido-N-(2-fluoro-3-(trifluoromethoxy)benzyl)-6-methylisonicotinamide], the IC50 in test [1] and in test [2] was less than 1 µM in each case.

Regarding `CCCC(=O)Nc1cc(C(=O)NCc2cnc(OCC(F)F)c(C)c2)ccn1` [Example 757, 2-butyramido-N-((6-(2,2-difluoroethoxy)-5-methylpyridin-3-yl)methyl)isonicotinamide], the IC50 in test [1] and in test [2] was less than 1 µM throughout.

For the compound `O=C(NCc1cnc(OCC(F)F)c(Cl)c1)c1ccnc(NC(=O)C2CC2)n1` [Example 707, N-((5-chloro-6-(2,2-difluoroethoxy)pyridin-3-yl)methyl)-2-(cyclopropanecarboxamido)pyrimidine-4-carboxamide], the IC50 in test [1] and in test [2] was less than 1 µM throughout.

As for `CCC(=O)Nc1cc(C(=O)NCc2cc(C(F)(F)F)ccc2F)cc(C)n1` [Example 128, N-(2-fluoro-5-(trifluoromethyl)benzyl)-2-methyl-6-propionamidoisonicotinamide], the IC50 in test [1] and in test [2] was less than 1 µM in each case.

Consider `CC(C)C(=O)Nc1cc(C(=O)NC(C)c2ccc(OCC(F)(F)F)nc2)ccn1` (single isomer, unassigned) [Example 8, 2-isobutyramido-N-(1-(6-(2,2,2-trifluoroethoxy)pyridin-3-yl)ethyl)isonicotinamide], for which the IC50 in test [1] and in test [2] was less than 1 µM in each case.

Consider `CCOc1nc(OCC(F)(F)F)ccc1CNC(=O)c1cc(C)nc(NC(=O)CC)n1` [Example 359, N-((2-ethoxy-6-(2,2,2-trifluoroethoxy)pyridin-3-yl)methyl)-6-methyl-2-propionamidopyrimidine-4-carboxamide], for which the IC50 in test [1] and in test [2] was less than 1 µM each time.

In the case of `Cc1cc(C(C)NC(=O)c2ccnc(NC(=O)C3CC3)c2)cnc1OCC(F)(F)C(F)F` (single isomer, unassigned) [Example 926, 2-(cyclopropanecarboxamido)-N-(1-(5-methyl-6-(2,2,3,3-tetrafluoropropoxy)pyridin-3-yl)ethyl)isonicotinamide], the IC50 in test [1] and in test [2] was less than 1 µM each time.

In the case of `Cc1cc(CNC(=O)c2ccnc(NC(=O)C3CC3)n2)ccc1OC(F)(F)F` [Example 810, 2-(cyclopropanecarboxamido)-N-(3-methyl-4-(trifluoromethoxy)benzyl)pyrimidine-4-carboxamide], the IC50 in test [1] and in test [2] was less than 1 µM each time.

On to `Cc1cc(C(=O)NCc2cnc(OCC(F)(F)C(F)F)c(C)c2)nc(NC(=O)C2CC2)n1` [Example 947, 2-(cyclopropanecarboxamido)-6-methyl-N-((5-methyl-6-(2,2,3,3-tetrafluoropropoxy)pyridin-3-yl)methyl)pyrimidine-4-carboxamide], for which the IC50 in test [1] and in test [2] was less than 1 µM in each case.

For `CCC(=O)Nc1cc(C(=O)NCc2cccc(OC(F)(F)F)c2)cc(C)n1` [Example 526, 2-methyl-6-propionamido-N-(3-(trifluoromethoxy)benzyl)isonicotinamide], the IC50 in test [1] and in test [2] was less than 1 µM each time.

Consider `CCC(=O)Nc1cc(C(=O)NCc2cnc(OCC(F)(F)F)c(C)c2)cc(C)n1` [Example 372, 2-methyl-N-((5-methyl-6-(2,2,2-trifluoroethoxy)pyridin-3-yl)methyl)-6-propionamidoisonicotinamide], for which the IC50 in test [1] and in test [2] was less than 1 µM each time.

`Cc1cc(C(=O)NC(C)c2cccc(OC(F)(F)F)c2)cc(NC(=O)C(C)C)n1` (single isomer, unassigned) [Example 499, 2-isobutyramido-6-methyl-N-(1-(3-(trifluoromethoxy)phenyl)ethyl)isonicotinamide]: the IC50 in test [1] and in test [2] was less than 1 µM each time.

Take `CCC(=O)Nc1cc(C(=O)NCc2cc(C)cc(OC(F)(F)F)c2)cc(C)n1` [Example 600, 2-methyl-N-(3-methyl-5-(trifluoromethoxy)benzyl)-6-propionamidoisonicotinamide]: the IC50 in test [1] and in test [2] was less than 1 µM each time.

Regarding `Cc1cc(C(=O)NC(C)c2ccc(OCC(F)F)c(Cl)c2)nc(NC(=O)C2CC2)n1` (single isomer, unassigned) [Example 984, N-(1-(3-chloro-4-(2,2-difluoroethoxy)phenyl)ethyl)-2-(cyclopropanecarboxamido)-6-methylpyrimidine-4-carboxamide], the IC50 in test [2] is less than 1 µM.

Turning to `O=C(NCc1cccc(OCC(F)(F)F)n1)c1ccnc(NC(=O)C2CC2)c1` [Example 465, 2-(cyclopropanecarboxamido)-N-((6-(2,2,2-trifluoroethoxy)pyridin-2-yl)methyl)isonicotinamide], the IC50 in test [2] was less than 1 µM.

Turning to `O=C(NCc1ccc(COCC(F)(F)F)cc1)c1ccnc(NC(=O)C2CC2)c1` [Example 665, 2-(cyclopropanecarboxamido)-N-(4-((2,2,2-trifluoroethoxy)methyl)benzyl)isonicotinamide], the 50% inhibitory concentration (IC50) in test [2] was less than 1 µM.

Turning to `CCC(=O)Nc1cc(C(=O)NCc2cc(OC(F)(F)F)ccc2F)ccn1` [Example 607, N-(2-fluoro-5-(trifluoromethoxy)benzyl)-2-propionamidoisonicotinamide], the IC50 in test [2] is less than 1 µM.

Turning to `C=C(C)C(=O)Nc1cc(C(=O)NC(C)c2ccc(OCC(F)(F)F)nc2)cc(C)n1` (single isomer, unassigned) [Example 571, 2-methacrylamido-6-methyl-N-(1-(6-(2,2,2-trifluoroethoxy)pyridin-3-yl)ethyl)isonicotinamide], in test [2], the IC50 is less than 1 µM.

Take `Cc1cc(C(=O)NCc2cccc(C(F)(F)F)c2)cc(NC(=O)CC2CC2)n1` [Example 961, 2-(2-cyclopropylacetamido)-6-methyl-N-(3-(trifluoromethyl)benzyl)isonicotinamide]: in test [2], the concentration for half-maximal inhibition (IC50) was less than 1 µM.

`COCCNc1nc(C)cc(C(=O)NC(C)c2cnc(OCC(F)(F)F)c(C)c2)n1` (single isomer, unassigned) [Example 475, 2-((2-methoxyethyl)amino)-6-methyl-N-(1-(5-methyl-6-(2,2,2-trifluoroethoxy)pyridin-3-yl)ethyl)pyrimidine-4-carboxamide]: the IC50 in test [2] is less than 1 µM.

Consider `CCC(=O)Nc1cc(C(=O)NCc2cnc(OCC(F)F)c(C)c2)cc(C)n1` [Example 740, N-((6-(2,2-difluoroethoxy)-5-methylpyridin-3-yl)methyl)-2-methyl-6-propionamidoisonicotinamide], for which the IC50 in test [2] was less than 1 µM.

Consider `CCc1cc(CNC(=O)c2cc(C)nc(NC(=O)C(C)C)c2)cnc1OCC(F)(F)F` [Example 715, N-((5-ethyl-6-(2,2,2-trifluoroethoxy)pyridin-3-yl)methyl)-2-isobutyramido-6-methylisonicotinamide], for which the half-maximal inhibitory concentration (IC50) in test [2] was less than 1 µM.

These data come from patent publication US9302991B2, “Arylamide derivatives as TTX-S blockers” (RaQualia Pharma Inc., priority 2010, dated 2016).
